Measurements taken from paper PMC6934184, “Selective DNA-PKcs inhibition extends the therapeutic index of localized radiotherapy and chemotherapy” (The Journal of Clinical Investigation, 2019).

Molecular target: T1, NEK1 (Homo sapiens, UniProt Q96PY6)
T1 construct: purchased Thermo Fisher Scientific (Life Technologies) SelectScreen
Assay: SelectScreen Z'LYTE
Assay type: biochemical
Outline: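 NU5455 was profiled across the SelectScreen Broad panel of kinase activity and binding assays. Z'LYTE reactions such as CSF1R ran at apparent Km ATP, while the Adapta CAMK1 assay used ATP listed as 10. Values are given as percent.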

T1 sequence (Q96PY6 whole entry): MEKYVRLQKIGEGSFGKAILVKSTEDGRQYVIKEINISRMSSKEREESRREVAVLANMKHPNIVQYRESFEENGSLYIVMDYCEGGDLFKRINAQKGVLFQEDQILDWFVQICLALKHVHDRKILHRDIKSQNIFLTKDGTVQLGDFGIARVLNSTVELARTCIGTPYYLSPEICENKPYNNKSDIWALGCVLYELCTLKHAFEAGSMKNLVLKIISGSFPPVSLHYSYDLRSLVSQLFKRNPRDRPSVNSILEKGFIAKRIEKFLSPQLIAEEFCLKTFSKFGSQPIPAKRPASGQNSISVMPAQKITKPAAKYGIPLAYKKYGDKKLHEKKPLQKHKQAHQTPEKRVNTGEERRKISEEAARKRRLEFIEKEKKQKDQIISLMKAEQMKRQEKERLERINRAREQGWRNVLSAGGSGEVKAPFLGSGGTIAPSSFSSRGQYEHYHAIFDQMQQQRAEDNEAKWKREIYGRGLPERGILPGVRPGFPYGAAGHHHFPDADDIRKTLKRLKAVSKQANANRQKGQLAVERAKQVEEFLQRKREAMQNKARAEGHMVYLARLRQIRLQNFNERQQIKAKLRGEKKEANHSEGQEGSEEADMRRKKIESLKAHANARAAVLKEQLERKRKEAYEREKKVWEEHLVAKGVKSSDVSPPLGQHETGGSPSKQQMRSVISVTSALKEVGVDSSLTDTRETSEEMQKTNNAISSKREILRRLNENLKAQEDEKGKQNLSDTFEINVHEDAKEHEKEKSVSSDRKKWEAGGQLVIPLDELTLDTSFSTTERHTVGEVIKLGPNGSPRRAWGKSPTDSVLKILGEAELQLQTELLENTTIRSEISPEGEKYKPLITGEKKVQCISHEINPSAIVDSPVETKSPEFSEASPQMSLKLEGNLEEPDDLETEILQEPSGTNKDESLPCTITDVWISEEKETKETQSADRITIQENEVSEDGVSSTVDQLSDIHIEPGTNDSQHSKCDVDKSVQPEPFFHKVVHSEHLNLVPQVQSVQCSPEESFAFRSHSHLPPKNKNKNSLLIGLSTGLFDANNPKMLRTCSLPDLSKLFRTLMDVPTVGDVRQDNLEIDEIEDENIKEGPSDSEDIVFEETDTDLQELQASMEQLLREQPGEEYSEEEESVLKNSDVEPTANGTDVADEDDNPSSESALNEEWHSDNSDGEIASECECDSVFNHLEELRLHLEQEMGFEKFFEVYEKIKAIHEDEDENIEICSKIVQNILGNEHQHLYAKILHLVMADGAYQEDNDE

## CN(C(=O)CN1CCOCC1)c1ccc2sc3c(-c4cccc5c(=O)cc(N6CC7CCC(C6)O7)oc45)cccc3c2c1 [NU5455]
  inhibition at 1 µM: 12.9%
